The text below walks through data of ChEMBL document CHEMBL1208714, “Dimeric cyclohexane-1,3-dione oximes inhibit wheat acetyl-CoA carboxylase and show anti-malarial activity” (Bioorg Med Chem Lett, 2010).

Activity calls are given as the source filed them. The rule behind the calls is not given here. A value given as a limit tells only on which side of the number the result lay.

The subject of one assay is Plasmodium falciparum. The assay can be described thus: Antimalarial activity against Plasmodium falciparum D10. Type of assay: functional, organism-based.
Assay [1] in a line: Inhibition of maize ACC. Also on record: species or system Zea mays.
The subject of assay [2] is acetyl-CoA carboxylase (Triticum aestivum). Briefly: Inhibition of wheat ACC at 20 uM.

Consider `CCO/N=C(\CC)C1=C(O)CC(c2c(C)cc(C)cc2C)CC1=O` (stereo not drawn) [TRALKOXYDIM], for which the IC50 in the assay with Plasmodium falciparum was greater than 100 µM; in assay [1], 0.52 µM.
`CCC/C(=N\OCc1ccccc1)C1=C(O)CC(c2cccc(C3CC(=O)C(/C(CCC)=N/OCc4ccccc4)=C(O)C3)c2)CC1=O` (stereo not drawn) returned an IC50 in the assay on Plasmodium falciparum of 12.5 µM.
In the assay on Plasmodium falciparum, `CCC/C(=N\OCC)C1=C(O)CC(c2ccc(C3CC(=O)C(/C(CCC)=N/OCC)=C(O)C3)cc2)CC1=O` (stereo not drawn) gave a concentration for half-maximal inhibition (IC50) of 5 µM.
Consider `CC/C(=N\OC/C=C/Cl)C1=C(O)CC(C2CCOCC2)CC1=O` (stereo not drawn) [TEPRALOXYDIM], for which the IC50 was greater than 100 µM in the assay on Plasmodium falciparum and 0.7 µM in assay [1].
Take `CCO/N=C(\C)C1=C(O)CC(c2ccc(C3CC(=O)C(/C(C)=N/OCC)=C(O)C3)cc2)CC1=O` (stereo not drawn): in the assay with Plasmodium falciparum, the IC50 turned out to be 12 µM.
As for `CCCC(=O)c1c(C)cc(C)c(C2CC(=O)C(/C(CC)=N/OCC)=C(O)C2)c1C` (stereo not drawn) [BUTROXYDIM], the IC50 in the assay on Plasmodium falciparum turned out to be 10 µM; in assay [1] it was 0.3 µM. Also, the inhibition entry in assay [2] is “Active”.
For the molecule `CCC/C(=N\OC(c1ccccc1)c1ccccc1)C1=C(O)CC(c2cccc(C3CC(=O)C(/C(CCC)=N/OC(c4ccccc4)c4ccccc4)=C(O)C3)c2)CC1=O` (stereo not drawn), the IC50 in the assay with Plasmodium falciparum was determined as 25 µM.
On the same count and under the same terms, for `CCO/N=C(\CC)C1=C(O)CC(c2c(C)cc(C)c(C(C)=O)c2C)CC1=O` (stereo not drawn) the value was greater than 10 µM.
With `CCSC(C)CC1CC(=O)C(/C(CC)=N/OC/C=C/Cl)=C(O)C1` (stereo not drawn) [CLETHODIM], the IC50 is greater than 250 µM with Plasmodium falciparum and 0.02 µM in assay [1].
In the assay with Plasmodium falciparum, `CCC/C(=N\OCC)C1=C(O)CC(c2cccc(C3CC(=O)C(/C(CCC)=N/OCC)=C(O)C3)c2)CC1=O` (stereo not drawn) registered an IC50 of 4 µM.
For the molecule `CCO/N=C(\CC)C1=C(O)CC(c2cccc(C3CC(=O)C(/C(CC)=N/OCC)=C(O)C3)c2)CC1=O` (stereo not drawn), in the assay on Plasmodium falciparum, it took 3 µM to reach half-maximal inhibition (IC50). The IC50 values of the last two molecules are within 1.5-fold of each other.
With `C=CCO/N=C(\CCC)C1=C(O)CC(c2cccc(C3CC(=O)C(/C(CCC)=N/OCC=C)=C(O)C3)c2)CC1=O` (stereo not drawn), the IC50 with Plasmodium falciparum worked out at 2.5 µM.
Regarding `CCO/N=C(\CC)C1=C(O)CC(c2ccc(C3CC(=O)C(/C(CC)=N/OCC)=C(O)C3)cc2)CC1=O` (stereo not drawn), in the assay with Plasmodium falciparum, the half-maximal inhibitory concentration (IC50) came out at 6 µM. Besides, the inhibition entry in assay [2] was “Active”.
As to `CCOC(=O)C(C)Oc1ccc(Oc2cnc3cc(Cl)ccc3n2)cc1` (stereo not drawn) [QUIZALOFOP ETHYL ESTER], the values for the IC50 (in the assay on Plasmodium falciparum; in assay [1]) were greater than 100 µM and greater than 1 µM, respectively.
Taken in the same sequence, the figures for `CC(Oc1ccc(Oc2cnc3cc(Cl)ccc3n2)cc1)C(=O)O` (stereo not drawn) [QUIZALOFOP] were greater than 100 µM and 0.016 µM.
